Reference: ChEMBL document CHEMBL3046074, “SnO2 nanoparticles mediated nontraditional synthesis of biologically active 9-chloro-6,13-dihydro-7-phenyl-5H-indolo [3,2-c]-acridine derivatives” (Med Chem Res, 2011)
Converted amounts (≈) assume the structure as drawn.

What was measured:
Type in all cases: functional, cell-based
Vero = assay: Cytotoxicity against Chlorocebus aethiops (African green monkey) Vero cells by MTT assay; conditions: Chlorocebus sabaeus
HeLa = assay: Cytotoxicity against Homo sapiens (human) HeLa cells by MTT assay
Erythrocyte = assay: Hemolytic activity in Homo sapiens (human) Erythrocyte after 30 min; conditions: 0.5 h

| SMILES | IC50 (Vero) | IC50 (HeLa) | EC50 (Erythrocyte) |
| --- | --- | --- | --- |
| Cc1ccc2[nH]c3c(c2c1)CCc1c-3nc2ccc(Cl)cc2c1-c1ccccc1 | > 100 µg/mL | > 100 µg/mL | 212 µg/mL (≈ 537 µM) |
| Cc1cccc2c3c([nH]c12)-c1nc2ccc(Cl)cc2c(-c2ccccc2)c1CC3 | > 100 µg/mL | > 100 µg/mL | 458 µg/mL (≈ 1160 µM) |
| Cc1ccc2c3c([nH]c2c1)-c1nc2ccc(Cl)cc2c(-c2ccccc2)c1CC3 | > 100 µg/mL | > 100 µg/mL | 409 µg/mL (≈ 1030 µM) |
| CC[C@@]1(O)C(=O)OCc2c1cc1n(c2=O)Cc2cc3ccccc3nc2-1 [CAMPTOTHECIN] | 58 µg/mL (≈ 166 µM) | 0.28 µg/mL (≈ 0.804 µM) | 430 µg/mL (≈ 1230 µM) |
